How the values were obtained:
[1] = system: portal vein insulin; experiment: Decrease of portal vein insulin levels in anesthetized rats, compared to somatostatin; assay type: in vivo, rat; settings: multiples or fractions of the effect of somatostatin (= 1); urethane-anesthetized male Sprague-Dawley rats, external jugular vein, portal vein blood after 5 minutes
Method: (§1) Analogs of somatostatin were compared to somatostatin in their ability to decrease the levels of portal vein glucagon and insulin in anesthetized rats. Male Sprague-Dawley rats (Charles River CD) weighing 160-200 g were anestetized with urethane (150 mg/100 g of body weight; Aldrich). Saline or peptides were administered via the external jugular vein. After 5 minutes, the portal vein was exposed, and blood was collected via syringe containing 3 mg of EDTA and placed in chilled tubes containing 100 μl of Trasylol (FBA Pharmaceuticals) for subsequent hormone analysis. Plasma levels of glucagon were determined by the method of Faloona and Unger, Methods of Hormone Radioimmunossay, Jaffe and Behrman (Eds), Academic Press, New York, Vol. II, pp. 257-527 (1976), utilizing glucagon antisera 30K obtained from R. Unger (Dallas, TX). Plasma levels of insulin were determined by a modification of the procedure of Herbert et al., J. Clin. Endocrinol. Metab., 25, 1375-1384 (1965).
(§2) The test results for some of the compounds of this invention are recorded below with the results for somatostatin listed first and given the arbitrary value of 1. The results for the instant compounds are given as multiples or fractions of the effect of somatostatin. The first of the instant compounds listed is the compound prepared in Example 1-5. […]

[2] = system: portal vein glucagon; experiment: Decrease of portal vein glucagon levels in anesthetized rats, compared to somatostatin; assay type: in vivo, rat; settings: multiples or fractions of the effect of somatostatin (= 1); urethane-anesthetized male Sprague-Dawley rats, external jugular vein, portal vein blood after 5 minutes
Method: as §1, §2

C[C@H](N)C(=O)NCC(=O)N[C@H]1CSSC[C@@H](C(=O)O)NC(=O)[C@H](CO)NC(=O)[C@H]([C@@H](C)O)NC(=O)[C@H](Cc2ccccc2)NC(=O)[C@H]([C@@H](C)O)NC(=O)[C@H](CCCCN)NC(=O)[C@H](Cc2c[nH]c3ccccc23)NC(=O)[C@H](Cc2ccccc2)NC(=O)[C@H](Cc2ccccc2)NC(=O)[C@H](CC(N)=O)NC(=O)[C@H](CCCCN)NC1=O [Somatostatin]
Insulin Release Inhibition [1]: 1 | Glucagon Inhibition [2]: 1

Source: patent US4612366A, “Cyclic hexapeptide somatostatin analogs” (Merck & Co., Inc., priority 1985, dated 1986)
